According to paper PMC2248166, “Quantitative peptide binding motifs for 19 human and mouse MHC class I molecules derived using positional scanning combinatorial peptide libraries” (Immunome Research, 2008):
Where a SMILES comes first, the peptide text is derived from it.

Tests used:
Assay in all cases: biochemical
Assay type in all cases: binding
HLA A*3201 = HLA A*3201 (Homo sapiens, UniProt P04439, A270S/D101S/D185E/E176V/E277Q/F133L/G103R/G107R/G231S/H175R/I121M/I218V/I322F/K168Q/L105A/L300P/L318F/M331R/P208A/P217A/Q94H/R106L/R138Q/S129P/T104I/T323A/T345S/V100E/V321M/V358M)
HLA A*3001 = HLA A*3001 (Homo sapiens, UniProt P04439, D140H/D185E/E176W/F33S/G80R/H175R/K168Q/R138E/R41S)
HLA B*1501 = HLA B*1501 (Homo sapiens, UniProt P01889, A329T/A93T/A95T/C349S/D201E/D98Y/E187L/E204Q/E69M/E70A/K202T/N87E/Q94N/R155S/R180W/S121R/S35A/S48A/V306I/V36M/Y140S/Y91S)
HLA B*1503 = HLA B*1503 (Homo sapiens, UniProt P01889, A329T/A93T/A95T/C349S/D201E/D98Y/E187L/E204Q/K202T/N87E/Q94N/R155S/R180L/S121R/S35A/V306I/V36M/Y140S/Y91S)

Chain of HLA A*3001 (P04439 25-365 limits assumed, stated change not applied): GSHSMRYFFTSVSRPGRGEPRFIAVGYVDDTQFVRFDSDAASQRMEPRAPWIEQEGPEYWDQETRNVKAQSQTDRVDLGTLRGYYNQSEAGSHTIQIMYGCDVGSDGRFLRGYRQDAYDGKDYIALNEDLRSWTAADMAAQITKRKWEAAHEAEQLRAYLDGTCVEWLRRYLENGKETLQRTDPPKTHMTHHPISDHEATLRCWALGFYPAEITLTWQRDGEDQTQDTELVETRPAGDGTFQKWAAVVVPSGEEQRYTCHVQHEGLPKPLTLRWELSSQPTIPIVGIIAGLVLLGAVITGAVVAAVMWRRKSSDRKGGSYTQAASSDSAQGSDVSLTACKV

## CC(C)[C@H](NC(=O)[C@H](Cc1ccccc1)NC(=O)[C@@H](NC(=O)[C@H](Cc1c[nH]cn1)NC(=O)[C@H](CCC(=O)O)NC(=O)[C@H](CCCNC(=N)N)NC(=O)[C@@H](NC(=O)[C@@H](N)CCCCN)C(C)C)[C@@H](C)O)C(=O)N[C@@H](CCCCN)C(=O)O [3102.0071] (H-KVREHTFVK-OH)
HLA A*3201
  IC50: 149 nM
HLA A*3001
  IC50: 2.1 nM

## CC[C@H](C)[C@H](N)C(=O)N[C@H](C(=O)N[C@@H](Cc1ccc(O)cc1)C(=O)N[C@@H](CO)C(=O)N[C@@H](CC(C)C)C(=O)N[C@H](C(=O)N[C@H](C(=O)N[C@H](C(=O)N[C@H](C(=O)O)[C@@H](C)CC)[C@@H](C)O)[C@@H](C)O)C(C)C)C(C)C [3102.0292] (H-IVYSLVTTI-OH)
HLA A*3201
  IC50: 3.6 nM
HLA A*3001
  IC50: 16 nM

## CC[C@H](C)[C@H](NC(=O)[C@@H](NC(=O)[C@@H](N)CCCCN)[C@@H](C)O)C(=O)N[C@@H](Cc1ccc(O)cc1)C(=O)N[C@@H](C)C(=O)N[C@H](C(=O)N[C@@H](CC(=O)O)C(=O)N[C@@H](CO)C(=O)N[C@@H](Cc1ccccc1)C(=O)O)C(C)C [3102.0340] (H-KTIYAVDSF-OH)
HLA B*1501
  IC50: 4 nM
HLA A*3201
  IC50: 6.8 nM

## CC[C@H](C)[C@H](NC(=O)[C@@H](NC(=O)[C@@H](N)CC(C)C)[C@@H](C)O)C(=O)N[C@@H](C)C(=O)N[C@@H](CS)C(=O)N[C@@H](CCCNC(=N)N)C(=O)N[C@H](C(=O)N[C@@H](CO)C(=O)N[C@@H](CC(C)C)C(=O)O)C(C)C [3102.0376] (H-LTIACRVSL-OH)
HLA B*1501
  IC50: 76 nM
HLA A*3201
  IC50: 96 nM

## CC[C@H](C)[C@H](N)C(=O)N[C@H](C(=O)N[C@H](C(=O)N1CCC[C@H]1C(=O)N[C@@H](CC(C)C)C(=O)N[C@@H](CO)C(=O)N[C@H](C(=O)N[C@@H](CO)C(=O)N[C@H](C(=O)O)[C@@H](C)CC)C(C)C)[C@@H](C)CC)[C@@H](C)CC [3102.0502] (H-IIIPLSVSI-OH)
HLA B*1501
  IC50: 299 nM
HLA A*3201
  IC50: 70 nM

## CC[C@H](C)[C@H](N)C(=O)N[C@H](C(=O)N[C@@H](C)C(=O)N[C@@H](Cc1c[nH]cn1)C(=O)N[C@@H](CC(C)C)C(=O)N[C@H](C(=O)N[C@@H](CC(N)=O)C(=O)N[C@@H](CO)C(=O)N[C@@H](CC(C)C)C(=O)O)C(C)C)[C@@H](C)O [3102.0503] (H-ITAHLVNSL-OH)
HLA B*1501
  IC50: 6.5 nM
HLA A*3201
  IC50: 183 nM

## CC(C)C[C@H](NC(=O)[C@@H](N)CCCNC(=N)N)C(=O)N[C@@H](Cc1ccccc1)C(=O)N[C@@H](Cc1ccc(O)cc1)C(=O)N[C@H](C(=O)N[C@@H](Cc1ccccc1)C(=O)N[C@@H](Cc1ccccc1)C(=O)N[C@@H](CO)C(=O)N[C@@H](Cc1ccc(O)cc1)C(=O)O)[C@@H](C)O [3102.0803] (H-RLFYTFFSY-OH)
HLA B*1501
  IC50: 0.37 nM
HLA A*3201
  IC50: 0.19 nM

## CC[C@H](C)[C@H](NC(=O)[C@H](CC(C)C)NC(=O)[C@@H](N)CCCNC(=N)N)C(=O)N[C@H](C(=O)N[C@@H](CC(C)C)C(=O)N[C@@H](Cc1ccccc1)C(=O)N[C@@H](CCC(=O)O)C(=O)N[C@H](C(=O)N[C@@H](Cc1ccccc1)C(=O)O)C(C)C)C(C)C [3102.0817] (H-RLIVLFEVF-OH)
HLA B*1501
  IC50: 6.8 nM
HLA A*3201
  IC50: 13 nM

## CC[C@H](C)[C@H](NC(=O)[C@@H](N)CCSC)C(=O)N[C@@H](Cc1ccccc1)C(=O)N[C@@H](Cc1ccccc1)C(=O)N[C@@H](CC(N)=O)C(=O)N1CCC[C@H]1C(=O)N[C@H](C(=O)N[C@@H](CO)C(=O)N[C@@H](Cc1ccccc1)C(=O)O)C(C)C [3102.0841] (H-MIFFNPVSF-OH)
HLA B*1501
  IC50: 9.4 nM
HLA A*3201
  IC50: 0.46 nM

## CC[C@H](C)[C@H](NC(=O)[C@H](CO)NC(=O)[C@@H](N)CCSC)C(=O)N[C@@H](CCSC)C(=O)N1CCC[C@H]1C(=O)N[C@H](C(=O)N[C@@H](CC(C)C)C(=O)N[C@@H](C)C(=O)N[C@@H](Cc1ccc(O)cc1)C(=O)O)C(C)C [3102.0858] (H-MSIMPVLAY-OH)
HLA B*1501
  IC50: 1.4 nM
HLA A*3201
  IC50: 100 nM

## CC(C)C[C@H](NC(=O)[C@@H](N)CC(C)C)C(=O)N[C@@H](Cc1ccc(O)cc1)C(=O)N[C@H](C(=O)N[C@@H](C)C(=O)N[C@@H](CC(N)=O)C(=O)N[C@@H](Cc1ccccc1)C(=O)N[C@H](C(=O)N[C@@H](Cc1ccccc1)C(=O)O)[C@@H](C)O)[C@@H](C)O [3102.0873] (H-LLYTANFTF-OH)
HLA B*1501
  IC50: 2.4 nM
HLA A*3201
  IC50: 6.7 nM

## CC[C@H](C)[C@H](NC(=O)[C@@H]1CCCN1C(=O)[C@H](CCC(=O)O)NC(=O)[C@H](CCC(=O)O)NC(=O)[C@H](CC(C)C)NC(=O)[C@H](Cc1ccc(O)cc1)NC(=O)[C@H](Cc1ccccc1)NC(=O)[C@H](CC(C)C)NC(=O)[C@@H](N)CCSC)C(=O)O [3102.0881] (H-MLFYLEEPI-OH)
HLA B*1501
  IC50: 45 nM
HLA A*3201
  IC50: 2.5 nM

## CC[C@H](C)[C@H](NC(=O)[C@@H](NC(=O)[C@@H](N)CO)[C@@H](C)CC)C(=O)N[C@@H](CO)C(=O)N[C@@H](CC(C)C)C(=O)N[C@@H](Cc1ccccc1)C(=O)N[C@@H](Cc1ccc(O)cc1)C(=O)N[C@H](C(=O)N[C@@H](Cc1ccccc1)C(=O)O)[C@@H](C)O [3102.0919] (H-SIISLFYTF-OH)
HLA B*1501
  IC50: 1.4 nM
HLA A*3201
  IC50: 5.7 nM

## CC(C)C[C@H](N)C(=O)N[C@H](C(=O)N[C@@H](Cc1ccccc1)C(=O)N[C@@H](CC(=O)O)C(=O)N[C@@H](Cc1ccc(O)cc1)C(=O)N[C@H](C(=O)N[C@H](C(=O)N[C@H](C(=O)N[C@@H](Cc1ccccc1)C(=O)O)[C@@H](C)O)C(C)C)C(C)C)[C@@H](C)O [3102.0931] (H-LTFDYVVTF-OH)
HLA B*1501
  IC50: 2.5 nM
HLA A*3201
  IC50: 17 nM

## CC[C@H](C)[C@H](NC(=O)[C@@H](NC(=O)[C@@H](N)CC(C)C)[C@@H](C)CC)C(=O)N[C@H](C(=O)N[C@@H](CCCCN)C(=O)N[C@H](C(=O)N[C@@H](Cc1ccccc1)C(=O)N[C@@H](CO)C(=O)N[C@@H](Cc1ccccc1)C(=O)O)C(C)C)[C@@H](C)O [3102.1011] (H-LIITKVFSF-OH)
HLA B*1501
  IC50: 7.7 nM
HLA A*3201
  IC50: 84 nM

## CC[C@H](C)[C@H](NC(=O)[C@@H](N)CC(N)=O)C(=O)N[C@@H](Cc1ccccc1)C(=O)N1CCC[C@H]1C(=O)N[C@@H](Cc1ccccc1)C(=O)N[C@@H](Cc1ccccc1)C(=O)N[C@H](C(=O)N[C@@H](C)C(=O)N[C@@H](Cc1ccccc1)C(=O)O)C(C)C [3102.1019] (H-NIFPFFVAF-OH)
HLA B*1501
  IC50: 2.2 nM
HLA A*3201
  IC50: 12 nM

## CC[C@H](C)[C@H](NC(=O)[C@@H](NC(=O)[C@@H](N)CCCCN)[C@@H](C)O)C(=O)N[C@@H](C)C(=O)N[C@@H](CCCNC(=N)N)C(=O)N[C@@H](Cc1ccccc1)C(=O)N[C@H](C(=O)N[C@@H](Cc1ccc(O)cc1)C(=O)N[C@@H](Cc1ccccc1)C(=O)O)[C@@H](C)O [3102.1031] (H-KTIARFTYF-OH)
HLA B*1501
  IC50: 0.2 nM
HLA A*3201
  IC50: 95 nM

## CC(C)C[C@H](NC(=O)[C@H](Cc1ccccc1)NC(=O)[C@H](Cc1c[nH]c2ccccc12)NC(=O)[C@H](CC(C)C)NC(=O)[C@@H](N)CC(C)C)C(=O)N[C@H](C(=O)NCC(=O)N[C@H](C(=O)N[C@@H](Cc1ccccc1)C(=O)O)[C@@H](C)O)[C@@H](C)O [3102.1045] (H-LLWFLTGTF-OH)
HLA B*1501
  IC50: 0.78 nM
HLA A*3201
  IC50: 93 nM

## CC(C)C[C@H](NC(=O)[C@@H](N)CCCCN)C(=O)N[C@@H](CC(N)=O)C(=O)N[C@@H](CC(N)=O)C(=O)N[C@H](C(=O)N[C@@H](Cc1ccccc1)C(=O)N[C@@H](Cc1ccc(O)cc1)C(=O)N[C@H](C(=O)N[C@@H](Cc1ccccc1)C(=O)O)C(C)C)C(C)C [3102.1169] (H-KLNNVFYVF-OH)
HLA B*1501
  IC50: 1.2 nM
HLA A*3201
  IC50: 0.52 nM

## CC[C@H](C)[C@H](NC(=O)[C@H](CO)NC(=O)[C@H](CC(N)=O)NC(=O)[C@H](CC(C)C)NC(=O)[C@@H](N)CO)C(=O)N[C@@H](Cc1ccccc1)C(=O)N[C@@H](CC(N)=O)C(=O)N[C@H](C(=O)N[C@@H](Cc1ccccc1)C(=O)O)[C@@H](C)O [3102.1238] (H-SLNSIFNTF-OH)
HLA B*1501
  IC50: 2.2 nM
HLA A*3201
  IC50: 14 nM

## CC[C@H](C)[C@H](NC(=O)[C@@H](NC(=O)[C@@H]1CCCN1C(=O)[C@H](CC(C)C)NC(=O)[C@H](Cc1ccccc1)NC(=O)[C@H](CO)NC(=O)[C@H](CCSC)NC(=O)[C@@H](N)CCCCN)[C@@H](C)CC)C(=O)N[C@@H](Cc1ccccc1)C(=O)O [3102.1291] (H-KMSFLPIIF-OH)
HLA A*3201
  IC50: 6.7 nM
HLA B*1503
  IC50: 0.08 nM

## CC[C@H](C)[C@H](N)C(=O)N[C@@H](CC(C)C)C(=O)N[C@@H](CCSC)C(=O)N[C@H](C(=O)N[C@@H](Cc1ccccc1)C(=O)N[C@H](C(=O)N[C@@H](CO)C(=O)N[C@@H](CO)C(=O)N[C@@H](Cc1ccccc1)C(=O)O)[C@@H](C)CC)[C@@H](C)CC [3102.1302] (H-ILMIFISSF-OH)
HLA A*3201
  IC50: 87 nM
HLA B*1503
  IC50: 12 nM

## CC[C@H](C)[C@H](N)C(=O)N[C@H](C(=O)N[C@@H](Cc1ccccc1)C(=O)N[C@@H](CCSC)C(=O)N[C@@H](CC(N)=O)C(=O)N[C@@H](CC(C)C)C(=O)N[C@@H](Cc1ccc(O)cc1)C(=O)N[C@@H](CO)C(=O)N[C@@H](Cc1ccccc1)C(=O)O)[C@@H](C)CC [3102.1328] (H-IIFMNLYSF-OH)
HLA A*3201
  IC50: 1.3 nM
HLA B*1503
  IC50: 11 nM

## CSCC[C@H](NC(=O)[C@H](Cc1ccc(O)cc1)NC(=O)[C@H](CC(C)C)NC(=O)[C@@H](N)CC(C)C)C(=O)N[C@@H](Cc1ccccc1)C(=O)N1CCC[C@H]1C(=O)N[C@@H](CC(N)=O)C(=O)N[C@@H](CC(C)C)C(=O)N[C@@H](Cc1ccccc1)C(=O)O [3102.1335] (H-LLYMFPNLF-OH)
HLA A*3201
  IC50: 90 nM
HLA B*1503
  IC50: 0.11 nM
